Series [1] addresses Serine/threonine-protein kinase mTOR (Homo sapiens, UniProt P42345). Description: Inhibition of mTOR (unknown origin) using Ulight-4E-BP1 peptide as substrate incubated for 45 mins in presence of ATP by Lance Ultra assay.
In series [2] the test system is HL-60. The series can be described thus: Induction of NO release in human HL-60 cells at 100 uM incubated for 12 hrs by griess reagent based colorimetric assay. The series is classed as functional, cell-based. On the technique in general: The Griess reaction detects nitrite, a stable product of nitric oxide.
For a further series, the system named is HepG2. The series can be described thus: Antiproliferative activity against human HepG2 cells assessed as inhibition of cell growth incubated for 70 hrs by CCK-8 assay. The series is classed as functional, cell-based. The settings on record: HepG2, 70 h. A general note: Formazan colour is commonly taken as a measure of viable cells.
Another series concerns MCF7. Description: Antiproliferative activity against human MCF7 cells assessed as inhibition of cell growth incubated for 70 hrs by CCK-8 assay. The series is classed as functional, cell-based. The settings on record: MCF7, 70 h.
For series [3], the system named is HL-60. The series can be described thus: Antiproliferative activity against human HL-60 cells assessed as inhibition of cell growth incubated for 70 hrs by CCK-8 assay. The series is classed as functional, cell-based. As to conditions: HL-60, 70 h.
Series [4] can be described thus: Cytotoxicity against HUVEC assessed as inhibition of cell growth incubated for 70 hrs by CCK-8 assay. The series is classed as toxicity, cell-based. The settings on record: human, HUVEC cells.
Another series concerns mTORC2 (Homo sapiens). Description: Inhibition of mTORC2 in human HL-60 cells assessed as reduction in Akt phosphorylation at S473 residue incubated for 24 hrs by Western blot assay. The settings on record: dose 20-160 nM. A general note: In western blotting, separated proteins are transferred to a membrane and probed.
The next series relates to mTORC1 (Homo sapiens). Description: Inhibition of mTORC1 in human HL-60 cells assessed as reduction in S6 phosphorylation at Ser235/236 residue incubated for 24 hrs by Western blot assay. As to conditions: dose 20-160 nM.

Calls of active or inactive are those of the source. The calls are words filed in the database; no cut-off is given here.

As a reminder, the IC50 is the concentration that inhibits the measured activity by half.

For the compound `Nc1nc2cc(-c3nn(CCCC(=O)OCCCOc4no[n+]([O-])c4S(=O)(=O)c4ccccc4)c4ncnc(N)c34)ccc2o1`, the IC50 in series [1] was found to be 6.39 nM; with HepG2, 1320 nM; with MCF7, 2410 nM; in the series with HL-60 [3] it was 90 nM. In addition, the result in the series with HL-60 [2] was Active. In addition, in series [4], the IC50 at 70 h amounted to 9.37 µM.
On to `Nc1nc2cc(-c3nn(CCCC(=O)OCCCCCOc4no[n+]([O-])c4S(=O)(=O)c4ccccc4)c4ncnc(N)c34)ccc2o1`, for which the IC50 came out at 9.52 nM in series [1], 1430 nM with HepG2, 2720 nM with MCF7 and 160 nM in the series with HL-60 [3]. In addition, in the series with HL-60 [2], the result was Active. The IC50 at 70 h in series [4] is over 10 µM.
Turning to `CC(C)n1nc(-c2ccc3oc(N)nc3c2)c2c(N)ncnc21` [SAPANISERTIB], the result in the series on HL-60 [2] was inactive. Also, the half-maximal inhibitory concentration (IC50) worked out at 1730 nM in the series with HepG2, 1230 nM with MCF7 and 160 nM with HL-60 [3]. Moreover, in series [4], the IC50 at 70 h is over 10 µM.
For the compound `Nc1nc2cc(-c3nn(CCCC(=O)OCCOc4no[n+]([O-])c4S(=O)(=O)c4ccccc4)c4ncnc(N)c34)ccc2o1`, the IC50 in series [1] was 3.31 nM; with HepG2, 1050 nM; with MCF7, 2700 nM; with HL-60 [3], 80 nM. In addition, the result in the series on HL-60 [2] was Active. Besides, the IC50 at 70 h in series [4] turned out to be 8.94 µM.
As for `Nc1nc2cc(-c3nn(CCCC(=O)OCc4ccc(OCc5c(-c6ccccc6)no[n+]5[O-])cc4)c4ncnc(N)c34)ccc2o1`, the IC50 in series [1] was over 1000 nM.
`Nc1nc2cc(-c3nn(CCCC(=O)OCCO[N+](=O)[O-])c4ncnc(N)c34)ccc2o1`: the half-inhibitory concentration (IC50) was 9.5 nM in series [1], over 10000 nM with HepG2, over 10000 nM in the series with MCF7 and over 10000 nM with HL-60 [3]. Moreover, the IC50 at 70 h in series [4] was over 10 µM.
For `Nc1nc2cc(-c3nn(CCCC(=O)OCCOCCOc4no[n+]([O-])c4S(=O)(=O)c4ccccc4)c4ncnc(N)c34)ccc2o1`, the IC50 is 7.02 nM in series [1], 1430 nM with HepG2, 1390 nM in the series with MCF7 and 520 nM with HL-60 [3]. Further, the outcome with HL-60 [2] was Active. In addition, the IC50 at 70 h in series [4] was over 10 µM.
On to `Nc1nc2cc(-c3nn(CCCC(=O)OCCCCCCO[N+](=O)[O-])c4ncnc(N)c34)ccc2o1`, for which the IC50 in series [1] turned out to be 19.8 nM.
`Nc1nc2cc(-c3nn(CCCC(=O)OCc4ccccc4OCc4c(-c5ccccc5)no[n+]4[O-])c4ncnc(N)c34)ccc2o1`: the IC50 in series [1] amounted to 45.1 nM.
As to `Nc1nc2cc(-c3nn(CCCC(=O)OCCCO[N+](=O)[O-])c4ncnc(N)c34)ccc2o1`, the IC50 in series [1] is 9.82 nM; with HepG2, over 10000 nM; in the series on MCF7, over 10000 nM; in the series on HL-60 [3], 7470 nM. Besides, the result in the series with HL-60 [2] was Active. The IC50 at 70 h in series [4] was over 10 µM.
In the case of `Nc1nc2cc(-c3nn(CCCC(=O)OCCCCO[N+](=O)[O-])c4ncnc(N)c34)ccc2o1`, the IC50 in series [1] was 12.9 nM.
On to `CC(COc1no[n+]([O-])c1S(=O)(=O)c1ccccc1)NC(=O)CCCn1nc(-c2ccc3oc(N)nc3c2)c2c(N)ncnc21` (stereo unspecified), for which the half-maximal inhibitory concentration (IC50) in series [1] was 5.96 nM; with HepG2 it was over 10000 nM; in the series with MCF7 it was over 10000 nM; with HL-60 [3], 6410 nM. Moreover, in the series with HL-60 [2], the outcome was Active. Also, the IC50 at 70 h in series [4] was 9.59 µM.
With `Nc1nc2cc(-c3nn(CCCC(=O)OCCc4ccc(OCc5c(-c6ccccc6)no[n+]5[O-])cc4)c4ncnc(N)c34)ccc2o1`, the IC50 in series [1] is over 1000 nM.
Consider `Nc1nc2cc(-c3nn(CCCC(=O)OCc4c(-c5ccccc5)no[n+]4[O-])c4ncnc(N)c34)ccc2o1`, for which the IC50 is 13.3 nM in series [1], over 10000 nM with HepG2, over 10000 nM in the series on MCF7 and 7700 nM in the series on HL-60 [3]. Besides, the result in the series on HL-60 [2] was Active. The IC50 at 70 h in series [4] was over 10 µM.
Turning to `Nc1nc2cc(-c3nn(CCCC(=O)NCCOc4no[n+]([O-])c4S(=O)(=O)c4ccccc4)c4ncnc(N)c34)ccc2o1`, the IC50 in series [1] was 7.9 nM; with HepG2, over 10000 nM; with MCF7 it was 6110 nM; in the series with HL-60 [3] it was 2050 nM. Besides, in the series with HL-60 [2], the result was Active. Also, the IC50 at 70 h in series [4] was over 10 µM.
Take `Nc1nc2cc(-c3nn(CCCC(=O)OCC#CCOc4no[n+]([O-])c4S(=O)(=O)c4ccccc4)c4ncnc(N)c34)ccc2o1`: the IC50 turned out to be 3.65 nM in series [1], 240 nM with HepG2, 880 nM in the series with MCF7 and 20 nM in the series with HL-60 [3]. Moreover, the outcome with HL-60 [2] was Active. Also, the IC50 at 70 h in series [4] is over 10 µM. Besides, the inhibition entry with mTORC2 (Homo sapiens) and in the series with mTORC1 (Homo sapiens) was “Dose-Dependent Effect” each time.
`Nc1nc2cc(-c3nn(CCCC(=O)OCCCCOc4no[n+]([O-])c4S(=O)(=O)c4ccccc4)c4ncnc(N)c34)ccc2o1`: the IC50 in series [1] stood at 6.71 nM; in the series on HepG2 it was 1480 nM; in the series with MCF7, 610 nM; with HL-60 [3] it was 70 nM. In addition, the outcome in the series on HL-60 [2] was Active. Further, the half-inhibitory concentration (IC50) at 70 h in series [4] was over 10 µM.
`Nc1nc2cc(-c3nn(CCCC(=O)NCCCOc4no[n+]([O-])c4S(=O)(=O)c4ccccc4)c4ncnc(N)c34)ccc2o1`: the IC50 in series [1] worked out at 4.2 nM; in the series on HepG2, 9960 nM; in the series on MCF7, 5180 nM; in the series on HL-60 [3], 3500 nM. Further, the outcome in the series with HL-60 [2] was Active. Also, in series [4], the concentration for half-maximal inhibition (IC50) at 70 h was over 10 µM.
`Nc1nc2cc(-c3nn(CCCC(=O)OCCCCCCOc4no[n+]([O-])c4S(=O)(=O)c4ccccc4)c4ncnc(N)c34)ccc2o1`: the IC50 in series [1] was 11 nM.
On the same count and under the same terms, the value for `Nc1nc2cc(-c3nn(CCCC(=O)OCCCCCO[N+](=O)[O-])c4ncnc(N)c34)ccc2o1` was 12.5 nM.
Take `Nc1nc2cc(-c3nn(CCCC(=O)OCc4cccc(OCc5c(-c6ccccc6)no[n+]5[O-])c4)c4ncnc(N)c34)ccc2o1`: the IC50 in series [1] is 337 nM.

(Values after ChEMBL document CHEMBL5370564, “Discovery of novel hybrids of mTOR inhibitor and NO donor as potential anti-tumor therapeutics” (Bioorg Med Chem, 2023).)
